2 compounds from US7563787B2, “Substituted pyrazole compounds” (Miikana Therapeutics, Inc., priority 2005, dated 2009) can be followed below.

Holding throughout (assay type): biochemical
The target of one assay is T1, ABL1 (Homo sapiens, UniProt P00519).
T1 construct: purchased Invitrogen, Carlsbad, Calif
Description: Kinase Selectivity Assay. To be noted: read-out: Percent Inhibition at 1 μM. On the procedure:
(§1) Compounds were assayed for inhibitory activity against a panel of different kinase enzymes at a concentration of 1 μM. Where appropriate, full-length enzymes or catalytically active fragments, with N-terminal or C-terminal His- or GST-tags, were used (Invitrogen, Carlsbad, Calif.). Test compounds were initially diluted to 100× test concentration in 100% DMSO. This 100× concentration was then diluted to a 4× working concentration in Kinase Buffer (50 mM HEPES pH 7.5, 0.01% Brij-35, 10 mM MgCl2, 1 mM EGTA) and 2.5 μL was then added to a low volume NBS, 384-well plate (Corning, Corning, N.Y.). Five μL of a 2× peptide/kinase mixture (Invitrogen, Carlsbad, Calif.), as appropriate (listed in Table 3), was then added and the reaction was then initiated by addition of 2.5 μL of a 4× working concentration of ATP in Kinase Buffer.

In another assay the target is T2, ABL1 E255K (Homo sapiens, UniProt P00519, E255K).
T2 construct: purchased Invitrogen, Carlsbad, Calif
The experiment in a line: Kinase Selectivity Assay. To be noted: read-out: Percent Inhibition at 1 μM. On the procedure: as §1

In another assay the target is T3, ABL1 G250E (Homo sapiens, UniProt P00519, G250E).
T3 construct: purchased Invitrogen, Carlsbad, Calif
The experiment in a line: Kinase Selectivity Assay. To be noted: read-out: Percent Inhibition at 1 μM. How it is done: as §1

The target of a further assay is T4, ABL1 T315I (Homo sapiens, UniProt P00519, T315I).
T4 construct: purchased Invitrogen, Carlsbad, Calif
The experiment in a line: Kinase Selectivity Assay. To be noted: read-out: Percent Inhibition at 1 μM. How it is done: as §1

The next assay has as its target T5, ABL1 Y253F (Homo sapiens, UniProt P00519, Y253F).
T5 construct: purchased Invitrogen, Carlsbad, Calif
Description: Kinase Selectivity Assay. To be noted: read-out: Percent Inhibition at 1 μM. On the procedure:
as §1

Another assay has as its target T6, FGFR1 (Homo sapiens, UniProt P11362).
T6 construct: purchased Invitrogen, Carlsbad, Calif
The experiment in a line: Kinase Selectivity Assay. To be noted: read-out: Percent Inhibition at 1 μM. On the procedure: as §1

A further assay has as its target T7, LCK (Homo sapiens, UniProt P06239).
T7 construct: full-length enzymes or catalytically active fragments; purchased Invitrogen
Description: Kinase Selectivity Assay. To be noted: read-out: Percent Inhibition at 1 μM. How it is done: as §1

Another assay concerns the target T8, PTK2 (FAK) (Homo sapiens, UniProt Q05397).
T8 construct: full-length enzymes or catalytically active fragments; purchased Invitrogen
The experiment in a line: Kinase Selectivity Assay. To be noted: read-out: Percent Inhibition at 1 μM. On the procedure:
as §1

Another assay addresses T9, SYK (Homo sapiens, UniProt P43405).
T9 construct: purchased Invitrogen, Carlsbad, Calif
The experiment in a line: Kinase Selectivity Assay. To be noted: read-out: Percent Inhibition at 1 μM. How it is done: as §1

Assay [1] deals with T10, recombinant human Flt3, residues 564-end (Homo sapiens, UniProt P36888).
T10 construct: recombinant human Flt3, residues 564-end; GST (N); purchased Upstate USA Inc, Charlottesville, Va
The experiment in a line: Flt3 Kinase Inhibition Assay. To be noted: read-out: inhibition of Flt3 at a concentration of 1 μM; 1 μM compound; 33P-ATP filter assay.
Description: Compounds were assayed for Flt3 kinase inhibitory activity using N-terminal GST-tagged recombinant human Flt3, residues 564-end (Upstate USA Inc, 706 Forest Street, Charlottesville, Va.). Serial dilutions of compound were assayed in a final reaction volume of 25 μL by incubating a solution of the above Flt3 kinase (5-10 mU), 8 mM MOPS (3-(N-morpholino) propanesulfonic acid) pH 7.0, 0.2 mM EDTA (ethylenediamine tetracetic acid), 50 μM amino acid sequence [sequence] (SEQ ID NO: 1)(Upstate USA Inc, 706 Forest Street, Charlottesville, Va.), and 10 mM magnesium acetate and [γ-^33P-ATP] (specific activity of about 500 cpm/pmol, concentration as required). The reaction was initiated by the addition of the magnesium acetate and [γ-^33P-ATP] mixture. After incubation for 40 minutes at room temperature, the reaction was stopped bythe addition of 5 μL of a 3% phosphoric acid solution. A 10 μL aliquote of the reaction was then spotted onto a P30 filtermat (PerkinElmer, Wellesley, Mass.) and washed three times for five minutes in 75 mM phosphoric acid and once in methanol prior to drying and scintillation counting. Inhibition of Flt3 activity was determined by comparison to assays that contained no inhibitor.

SMILES strings stand for the structures.

T6 sequence (P11362 22-822): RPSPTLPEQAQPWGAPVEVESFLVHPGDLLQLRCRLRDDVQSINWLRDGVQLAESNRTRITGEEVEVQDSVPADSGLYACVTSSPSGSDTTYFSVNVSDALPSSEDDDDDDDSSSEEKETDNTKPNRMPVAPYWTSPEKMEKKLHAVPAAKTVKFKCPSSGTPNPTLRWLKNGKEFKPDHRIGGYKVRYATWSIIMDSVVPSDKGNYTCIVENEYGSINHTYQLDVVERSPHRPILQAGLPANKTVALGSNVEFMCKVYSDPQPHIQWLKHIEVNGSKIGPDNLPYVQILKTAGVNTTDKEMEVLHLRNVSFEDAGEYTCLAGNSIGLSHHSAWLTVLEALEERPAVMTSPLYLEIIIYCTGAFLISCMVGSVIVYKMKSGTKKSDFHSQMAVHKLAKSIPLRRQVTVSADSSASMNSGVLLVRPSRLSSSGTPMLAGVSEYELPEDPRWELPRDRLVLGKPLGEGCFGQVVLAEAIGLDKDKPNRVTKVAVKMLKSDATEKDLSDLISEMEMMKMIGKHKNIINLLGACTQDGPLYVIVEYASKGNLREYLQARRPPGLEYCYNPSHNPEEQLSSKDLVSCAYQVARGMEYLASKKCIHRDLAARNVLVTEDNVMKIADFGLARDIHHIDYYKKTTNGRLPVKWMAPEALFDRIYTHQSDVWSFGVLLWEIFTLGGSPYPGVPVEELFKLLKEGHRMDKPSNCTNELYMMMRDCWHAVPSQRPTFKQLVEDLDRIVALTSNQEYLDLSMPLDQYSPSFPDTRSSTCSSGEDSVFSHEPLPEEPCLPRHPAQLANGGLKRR
T8 sequence (Q05397 whole entry, the tested form may be a part): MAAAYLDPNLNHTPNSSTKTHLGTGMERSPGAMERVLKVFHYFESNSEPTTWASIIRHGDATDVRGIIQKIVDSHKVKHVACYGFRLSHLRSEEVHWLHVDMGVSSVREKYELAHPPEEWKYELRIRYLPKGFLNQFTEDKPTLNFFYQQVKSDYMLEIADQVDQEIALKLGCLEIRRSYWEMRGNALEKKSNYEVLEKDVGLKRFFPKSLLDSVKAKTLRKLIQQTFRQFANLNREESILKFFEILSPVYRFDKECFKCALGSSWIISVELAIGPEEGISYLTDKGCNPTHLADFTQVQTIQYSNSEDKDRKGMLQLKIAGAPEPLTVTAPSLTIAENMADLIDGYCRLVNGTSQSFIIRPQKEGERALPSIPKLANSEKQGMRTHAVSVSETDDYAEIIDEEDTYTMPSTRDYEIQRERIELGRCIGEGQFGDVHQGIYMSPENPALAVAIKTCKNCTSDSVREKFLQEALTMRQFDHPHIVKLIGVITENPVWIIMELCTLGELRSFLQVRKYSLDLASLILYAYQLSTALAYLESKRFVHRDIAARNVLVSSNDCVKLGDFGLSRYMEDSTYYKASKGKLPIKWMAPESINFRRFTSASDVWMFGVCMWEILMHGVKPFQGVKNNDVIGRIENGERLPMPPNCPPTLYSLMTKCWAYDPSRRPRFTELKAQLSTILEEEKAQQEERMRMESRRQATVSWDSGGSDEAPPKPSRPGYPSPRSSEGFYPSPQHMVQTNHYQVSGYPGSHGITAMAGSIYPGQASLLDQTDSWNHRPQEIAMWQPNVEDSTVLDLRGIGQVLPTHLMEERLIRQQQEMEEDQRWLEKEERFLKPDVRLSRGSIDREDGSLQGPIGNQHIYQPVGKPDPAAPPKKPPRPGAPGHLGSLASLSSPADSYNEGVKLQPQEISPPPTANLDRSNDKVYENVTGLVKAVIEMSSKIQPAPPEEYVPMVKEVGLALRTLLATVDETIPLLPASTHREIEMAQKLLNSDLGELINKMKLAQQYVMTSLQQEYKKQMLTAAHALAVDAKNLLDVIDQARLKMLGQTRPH
T7 sequence (P06239 whole entry, the tested form may be a part): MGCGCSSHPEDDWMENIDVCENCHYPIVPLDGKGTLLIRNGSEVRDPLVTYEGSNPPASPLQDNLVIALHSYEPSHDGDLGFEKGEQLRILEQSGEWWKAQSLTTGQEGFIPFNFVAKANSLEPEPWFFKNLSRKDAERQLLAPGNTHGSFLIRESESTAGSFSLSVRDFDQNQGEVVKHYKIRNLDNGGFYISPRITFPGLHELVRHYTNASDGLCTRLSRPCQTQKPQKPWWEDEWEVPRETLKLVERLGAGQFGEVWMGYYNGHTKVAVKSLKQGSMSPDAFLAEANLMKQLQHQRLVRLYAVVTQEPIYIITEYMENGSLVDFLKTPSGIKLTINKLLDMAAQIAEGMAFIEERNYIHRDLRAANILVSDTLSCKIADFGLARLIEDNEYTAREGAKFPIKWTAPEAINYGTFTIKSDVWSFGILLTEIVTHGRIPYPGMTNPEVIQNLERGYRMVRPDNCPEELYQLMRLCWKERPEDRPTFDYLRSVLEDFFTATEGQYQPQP
T10 sequence (P36888 564-993 limits assumed): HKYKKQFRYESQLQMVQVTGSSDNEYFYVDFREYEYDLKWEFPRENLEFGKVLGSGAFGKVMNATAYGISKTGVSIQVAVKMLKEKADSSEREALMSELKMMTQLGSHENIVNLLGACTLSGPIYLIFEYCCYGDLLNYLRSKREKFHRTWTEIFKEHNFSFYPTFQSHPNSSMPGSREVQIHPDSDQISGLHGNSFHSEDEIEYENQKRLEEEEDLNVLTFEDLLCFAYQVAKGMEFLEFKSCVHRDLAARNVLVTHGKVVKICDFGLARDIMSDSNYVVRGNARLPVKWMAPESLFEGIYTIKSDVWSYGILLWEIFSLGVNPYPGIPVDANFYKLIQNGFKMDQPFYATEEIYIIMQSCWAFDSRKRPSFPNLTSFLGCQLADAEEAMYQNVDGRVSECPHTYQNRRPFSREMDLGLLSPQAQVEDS

In the case of `Cc1cc(Nc2nc(/C=C/c3ccccc3)nc(N3CCN(C)CC3)c2N)[nH]n1` [Example 10, 6-(4-methylpiperazin-1-yl)-N-(3-methyl-1H-pyrazol-5-yl)-2-[(E)-2-phenylvinyl]pyrimidin-4,5-diamine], the inhibition at 1 µM was determined as 54% on ABL1; 53% on ABL1 E255K; 60% on ABL1 G250E; 79% at ABL1 T315I; 57% on ABL1 Y253F; 46% on FGFR1. Besides, the values for the inhibition at 1 µM on LCK, at PTK2 (FAK) and on SYK were 81%, 81% and 88%, respectively.

For the compound `Cc1cc(Nc2cc(N3CCN(C)CC3)nc(/C=C/c3ccccc3)n2)n[nH]1` [Example 31, 6-(4-methylpiperazin-1-yl)-N-(3-methyl-1H-pyrazol-5-yl)-2-[(E)-2-phenylvinyl]pyrimidin-4-amine], the inhibition at 1 µM in assay [1] is ~96%.
